Source: patent publication US12268901B2, “Targeting cell tropism receptors to inhibit cytomegalovirus infection” (priority 2017, dated 2025)

Tests used:
[1] = test system: Akt phosphorylation in ARPE19 cells; assay: PI3/Akt signaling induced by virus binding (immunoblot phospho Akt ser473); type: cell-based; conditions: Peptide 1 100 ug/ml preincubated with virus at 37° C. for 2 h, ARPE19, 30 minutes post infection
Procedure: FIGS. 8A-C. […] (A) Cells were serum starved at 37° C. for overnight and cells were pretreated with DMSO (control), LY294002 (50 uM) in serum-free medium prior to infection for two hours. Plated cells were cooled on ice for 30 mins. Cells were infected by purified TB40E-GFP virus (no serum) at MOI of 2.0 PFU per cell for 2 hours on ice. Cell plates were then shifted to 37° C. incubator (time 0). Cells were harvested at 0, 5, 10 mins post infection. Protein extracts were subjected to immunoblotting with anti-phospho Akt (ser473), Akt or anti-β-actin (loading control). (B) ARPE19 epithelial sgCon and sgOR14I1 knock out cells were serum starved at 37° C. for overnight. Plated cells were cooled on ice for 30 mins. Cells were infected by purified TB40E-GFP virus (no serum) at MOI of 2.0 PFU per cell for 2 hours on ice. Cell plates were then shifted to 37° C. incubator (time 0). Cell were harvested at 0, 5 mins post infection. (C) Peptide 1 (100 ug/ml) was preincubated with TB40E-GFP virus at 37° C. for 2 h and the mixture applied to ARPE19 cells. The phosphorylation of Akt and total Akt were detected 30 minutes post infection of TB40E-GFP.
Cells were serum starved at 37° C. for overnight and cells were pretreated with DMSO (DMSO-carrier control) or LY294002 (50 uM) in serum-free medium prior to infection for two hours. Cell plates were cooled on ice for 30 mins. […]

[2] = test system: HCMV infection of HEL fibroblasts; assay: Peptide blocking assay, infection of HEL fibroblasts (percent IE positive cells); type: cell-based, Human cytomegalovirus (HCMV); conditions: peptide 1 100 μg/ml, MOI=2.0
Procedure: FIG. 9. […] TB40E-GFP encoding the viral PC or AD169 lacking PC were preincubated with peptide 1 (100 μg/ml) and then infected on ARPE19 epithelial cells or HEL fibroblasts (MOI=2.0). Cells were fixed, permeabilized, stained for DNA, immunostained for anti-immediate early protein (IE) and imaged. […] Values indicate the mean percentage of infected cells of n=3 experiments±SD. **p<0.01; ***p<0.001.
Live cell images: Phase and GFP signal images were captured on a Zeiss microscope (Zeiss AxioObserver Z1) at 10× magnification. Fixed cell images: cells were washed with PBS (Life Technologies) and fixed with 4% formalin in PBS (Sigma). DNA was stained with Hoechst 33342 dye (Life Technologies). The fixed cells were imaged using an Image Xpress Micro (IXM, Molecular Devices) at 4× magnification. Images were analyzed with MetaXpress imaging software (Molecular Devices) to determine the total cells per well and the percentage of infected cells (GFP positive) in each well. For IE immunostaining: fixed cells were permeabilized with 0.2% Triton X-100 (Sigma) in PBS. Blocking was performed with 1% BSA (Calbiochem, 2930) in PBS with 0.3M glycine (Sigma). Cells were then incubated in antibody targeting the major IE proteins (IE, EMD Millipore, MAB8131) diluted in 1% BSA in PBS. […]

[3] = test system: HCMV TB40E-GFP replication in ARPE19 cells; assay: Plaque assay of culture supernatants for infectious virus; type: cell-based, Human cytomegalovirus (HCMV); conditions: peptide 1 100 μg/ml, ARPE19, MOI=2.0, supernatants at indicated dpi
Procedure: (A) Different amounts of peptide 1 were preincubated with TB40E-GFP virus and the mixture applied to ARPE19. Viral DNA levels were quantified by qPCR. (B) The results in (A) are presented as the relative amount of viral DNA relative to the DMSO control. (C) TB40E-GFP virus was preincubated with peptide 1 (100 μg/ml), or DMSO, followed by infection of ARPE19 cells (MOI=2.0). Cells were imaged for GFP expression at 2 dpi (D2) and 7 dpi (D7). (D) TB40E-GFP or BADrUL131-GFP virus, both expressing PC, were preincubated with peptide 1 (100 μg/ml), or DMSO prior to infection of ARPE19 cells (MOI=2.0). Cells were fixed and imaged for GFP at 2 dpi. All data represent the mean of n=3 experiments+/−SD. (E) Culture media supernatants from (C) were harvested on the indicated dpi and assayed for infectious virus by plaque assay. Values indicate the mean percent infected cells of 3 independent experiments±SD. ****p<0.0001.

MDNLTKVTEFLLMEFSGIWELQVLHA (N-terminal fragment of OR14I1) [Peptide 1, synthetic peptide representing the N-terminus of OR14I1, position 1-26]
Akt phosphorylation induced by HCMV infection [1]: abolished
PC+ HCMV infection of fibroblasts [2]: modest effect
long-term replication of HCMV (infectious virus by plaque assay) [3]: compromised the long-term replication of HCMV
